The subject of experiment [1] is phenylquinone-induced writhing reaction. Description: phenylquinone-induced writhing test in mice. Type of experiment: in vivo. The conditions noted are these: male NMRI mice, phenylquinone i.p. 10 minutes later; for inhibition in vivo at 10 mg/kg: Mus musculus, iv, 10 min, 10 mg/kg intravenously. The procedure: Analgesic Effect in the Writhing Test in Mice
The analgesic effect was investigated in the phenylquinone-induced writhing test in mice (as modified by I. C. Hendershot and J. Forsaith (1959) J. Pharmacol. Exp. Ther. 125, 237-240). Male NMRI mice weighing 25 to 30 g were used for the test. Groups of 10 animals each received by intraperitoineal application, for each substance dose, 0.3 ml/mouse of a 0.02% aqueous solution of phenylquinone (phenylbenzoquinone, Sigma Company, Deisenhofen; solution prepared with addition of 5% of ethanol and kept in a water bath at 45° C.) 10 minutes after intravenous administration of the test substances. The animals were placed individually in observation cages. The number of pain-induced stretching movements (so-called writhing reactions=straightening of the body together with stretching of the rear extremities) was measured by means of a push-button counter 5 to 20 minutes after administration of the phenylquinone. Animals that had received only physiological saline solution served as controls. All substances were tested in the standard dose of 10 mg/kg. The percentage inhibition (% inhibition) of the writhing reaction produced by a substance was calculated according to the following formula: [formula]

A further experiment has as its target T1, NA transporter (Rattus norvegicus, UniProt Q63380).
T1 construct: synaptosomes are isolated fresh from rat brains; from tissue; host or cells: rat hypothalamus synaptosomes (P2 fraction)
The experiment in a line: synaptosomal noradrenaline uptake inhibition (NA uptake inhibition). Type of experiment: biochemical. The conditions noted are these: for inhibition at 1 µM: read-out: NA Uptake Inhibition at 1 μM, 1 μM in the assay, synaptosomes from rat hypothalamus; for NA Uptake Inhibition at 1 μM: 1 μM in the assay, synaptosomes from rat hypothalamus. The procedure: In order to carry out these in vitro studies, synaptosomes are isolated fresh from rat brains. In each case a so-called “P2” fraction is used, which is prepared according to the protocol of Gray and Whittaker (E. G. Gray and V. P. Whittaker (1962) J. Anat. 76, 79-88).
(in each case N=4, i.e. mean values±SEM from 4 independent series of experiments that were carried out in the form of triple parallel experiments).
(§1) For this purpose IC50 values are obtained, which can be converted to inhibitor constants (Ki) according to the “Cheng-Prusoff equation” (Y. C. Clieng and W. H. Prusoff (1973) Biochem. Pharmacol. 22, 3099-3108). The IC50 values were obtained by means of the computer program “Figure P” (version 6.0, Biosoft, Cambridge, England). Km values were calculated according to Lineweaver and Burk (H. Lineweaver and D. Burk (1934) J. Am. Chem. Soc. 56, 658-666). The “Ligand” computer program (version 4, Biosoft, England) was used to obtain Ken values.

For experiment [2], the system named is benzothiazepine binding site of the L-type calcium channel. Description: Diltiazem binding, L calcium channel. Details: species or system rat. The conditions noted are these: 10 μM, percentage inhibition, [3H]-cis-(+)-diltiazem 5 nM, rat cerebral cortex membranes. The procedure:
Binding Investigations in the L Calcium Channel
Benzothiazepine Binding Site (Diltiazem Binding)
The biological membrane material was isolated from the rat cerebral cortex. [^3H]-cis-(+)-diltiazem (5 nM in the assay) was used as ligand. The material was incubated for 20 minutes at 25° C. The radioactivity that is measured in the presence of (±)-diltiazem (10^−6 M in the assay) is defined as non-specific binding. After completion of incubation the non-bound fraction of the radioactive ligand is separated by means of a filtration process using Whatman Glasfiber GF/B membranes. The membranes are washed and the radioactivity is then measured using a β-counter. The method is based on the details published by Schoemaker and Langer (H. Schoemaker and S. Z. Langer (1985) Eur. J. Pharmacol. 111, 273-277).
as §1

Experiment [3] has as its system binding site 2 of the sodium channel. Description: BTX binding, sodium channel. The settings on record: 10 μM, percentage inhibition, [3H]-batrachotoxin A20 α-benzoate 10 nM, rat cerebral cortex synaptosomes. How it is done: Binding Investigations in the Sodium Channel
Binding Site 2 (BTX Binding)
The binding site 2 of the sodium channel is the so-called batrachotoxin (BTX) binding site. [^3H]-batrachlotoxin A20 α-benzoate (10 nM in the assay) was used as ligand. These ion channel particles (synaptosomes) were concentrated from rat cerebral cortex according to the procedure of Gray and Whittaker (E. G. Gray and V. P. Whittaker (1962) J. Anat. 76, 79-88). The radioactivity that is measured in the presence of veratridine (0.3 mM in the assay) is defined as non-specific binding. The material was incubated at 37° C. for 120 minutes. The assay conditions are carried out according to the protocol published by Pauwels, Leysen and Laduron (P. J. Pauwels, J. E. Leysen and P. M. Laduron (1986) Eur. J. Pharmacol. 124, 291-298).
(N=3, i.e. mean values±SEM from 3 independent series of experiments that were carried out in the form of triple parallel experiments).
as §1

T1 sequence (Q63380 1-617): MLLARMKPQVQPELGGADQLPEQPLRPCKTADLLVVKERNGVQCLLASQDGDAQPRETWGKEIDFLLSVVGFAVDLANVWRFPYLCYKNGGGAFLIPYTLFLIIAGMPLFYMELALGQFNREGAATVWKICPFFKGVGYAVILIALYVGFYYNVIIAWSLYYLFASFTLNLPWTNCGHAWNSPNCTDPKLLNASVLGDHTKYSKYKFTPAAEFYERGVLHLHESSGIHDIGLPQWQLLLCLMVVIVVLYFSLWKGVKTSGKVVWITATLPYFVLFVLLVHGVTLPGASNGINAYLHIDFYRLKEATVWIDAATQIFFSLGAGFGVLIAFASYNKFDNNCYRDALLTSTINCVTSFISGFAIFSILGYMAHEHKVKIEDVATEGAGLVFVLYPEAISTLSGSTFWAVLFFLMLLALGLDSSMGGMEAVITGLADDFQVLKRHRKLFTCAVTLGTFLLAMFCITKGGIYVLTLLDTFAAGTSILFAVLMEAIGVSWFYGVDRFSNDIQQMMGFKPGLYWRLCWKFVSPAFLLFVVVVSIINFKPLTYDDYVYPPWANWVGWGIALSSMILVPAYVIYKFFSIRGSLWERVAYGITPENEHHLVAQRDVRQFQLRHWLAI

In turn, `CN(C)C(c1cccc(Oc2ccccc2)c1)C1CCCCC1(O)CCc1ccccc1.Cl` (centres unmarked) [Example 52, 2-[dimethylamino-(3-phenoxyphenyl)methyl]-1-phenethylcyclohexanol, hydrochloride] yielded an inhibition in vivo at 10 mg/kg in experiment [1] of 70%. In addition, the inhibition at 1 µM on NA transporter was determined as 38%. For the same compound, the “Diltiazem Binding at 10 μM” value in experiment [2] is reported as 98%. Moreover, the “BTX Binding at 10 μM” value in experiment [3] came to 99%.
For `CN(C)C(c1cccc(Oc2ccccc2)c1)C1CCCCC1(O)Cc1cccc(C(F)(F)F)c1.Cl` (centres unmarked) [Example 53, 2-[dimethylamino-(3-phenoxyphenyl)methyl]-1-(3-trifluoromethylbenzyl)cyclohexanol, hydrochloride], in that order: 90%, 49%, 92% and 97%.
Turning to `COc1cccc(C(C2CCCCC2(O)c2cccc(Cl)c2)N(C)C)c1.Cl` (centres unmarked) [Example 9], the “% Inhibition of the writhing reaction at 10 mg/kg intravenously” value (from here on “% Inhibition of the writhing reaction”) in experiment [1] was found to be 73%. The “NA Uptake Inhibition at 1 μM” value at NA transporter is 62%. In addition, the “Diltiazem Binding at 10 μM” value in experiment [2] turned out to be 91%. The “BTX Binding at 10 μM” value in experiment [3] worked out at 89%.
Compound `CN(C)C(c1ccccc1)C1CCCCC1(O)Cc1ccc(F)cc1Cl.Cl` (centres unmarked) [Example 27, 1-(2-chloro-4-fluorobenzyl)-2-(dimethylaminophenylmethyl)cyclohexanol, hydrochloride] registered an inhibition in vivo at 10 mg/kg in experiment [1] of 82%. In addition, at NA transporter, the inhibition at 1 µM is 89%. Moreover, the “Diltiazem Binding at 10 μM” value in experiment [2] was 96%. Besides, the “BTX Binding at 10 μM” value in experiment [3] worked out at 97%.
The compound `CN(C)C(c1ccccc1)C1CCCCC1(O)c1ccc(O)cc1.Cl` (centres unmarked) [Example 20, 4-[2-(dimethylaminophenylmethyl)-1-hydroxycyclohexyl]phenol, hydrochloride] came in with an inhibition in vivo at 10 mg/kg in experiment [1] of 96%. For the same compound, the inhibition at 1 µM on NA transporter turned out to be 68%. Also, the “Diltiazem Binding at 10 μM” value in experiment [2] is 69%. For the same compound, the “BTX Binding at 10 μM” value in experiment [3] was determined as 68%.
Consider `CN(C)C(c1cccc(Cl)c1)C1CCCCC1(O)c1ccccc1.Cl` (centres unmarked) [Example 42], for which the “% Inhibition of the writhing reaction” value in experiment [1] was determined as 76%. In addition, the “NA Uptake Inhibition at 1 μM” value at NA transporter is recorded as 82%. The “Diltiazem Binding at 10 μM” value in experiment [2] worked out at 50%. The “BTX Binding at 10 μM” value in experiment [3] is reported as 89%.
`CN(C)C(c1ccccc1Cl)C1CCCCC1(O)Cc1ccccc1Cl.Cl` (centres unmarked) [Example 60, 1-(2-chlorobenzyl)-2-[(2-chlorophenyl)dimethylaminomethyl]cyclohexanol, hydrochloride] had an inhibition in vivo at 10 mg/kg in experiment [1] of 63%. Besides, the inhibition at 1 µM at NA transporter was 56%. The “Diltiazem Binding at 10 μM” value in experiment [2] was found to be 79%. The “BTX Binding at 10 μM” value in experiment [3] turned out to be 95%.
The matching figures for `CCC(O)(CCc1ccccc1)C(C)C(c1ccccc1)N(C)C.Cl` (centres unmarked) [Example 59, 1-dimethylamino-3-ethyl-2-methyl-1,5-diphenylpentan-3-ol, hydrochloride]: 59%, 26%, 64% and 86%.
Regarding `Cc1ccccc1C(C1CCCCC1(O)c1ccccc1)N(C)C.Cl` (centres unmarked) [Example 81, 2-(dimethylamino-o-tolylmethyl)-1-phenylcyclohexanol, hydrochloride], in experiment [1] (hydrochloride, 10 mg/kg), the “% Inhibition of the writhing reaction” value came out at 75%. On NA transporter (hydrochloride), the “NA Uptake Inhibition at 1 μM” value is 66%. Moreover, in experiment [2] (hydrochloride), the “Diltiazem Binding at 10 μM” value stood at 83%. For the same compound, the “BTX Binding at 10 μM” value in experiment [3] (hydrochloride) is listed as 99%.
In experiment [1], `CN(C)C(c1ccccc1)C1CCCCC1(O)Cc1ccc(F)c(F)c1.Cl` (centres unmarked) [Example 55, 1-(3,4-difluorobenzyl)-2-(dimethylaminophenylmethyl)cyclohexanol, hydrochloride] showed an inhibition in vivo at 10 mg/kg of 92%. At NA transporter, the inhibition at 1 µM came to 38%. Further, the “Diltiazem Binding at 10 μM” value in experiment [2] worked out at 76%. The “BTX Binding at 10 μM” value in experiment [3] was determined as 94%.
For `CN(C)CC1CCCCC1(O)c1ccc(Cl)cc1Cl.Cl` (centres unmarked) [Example 43, 1-(2,4-dichlorophenyl)-2-(3-dimethylaminomethyl)-1-cyclohexanol, hydrochloride], the “% Inhibition of the writhing reaction” value in experiment [1] amounted to 80%. At NA transporter, the “NA Uptake Inhibition at 1 μM” value is 14%. In experiment [2], the “Diltiazem Binding at 10 μM” value is given as 73%. In addition, the “BTX Binding at 10 μM” value in experiment [3] is given as 94%.
With `CN(C)C(c1cccc(Cl)c1)C1CCCCC1(O)Cc1ccc(C(C)(C)C)cc1.Cl` (centres unmarked) [Example 51, 1-(4-tert.-butylbenzyl)-2-[(3-chlorophenyl)dimethylaminomethyl]cyclohexanol, hydrochloride], the inhibition in vivo at 10 mg/kg in experiment [1] was found to be 99%. Further, the inhibition at 1 µM at NA transporter worked out at 10%. In addition, the “Diltiazem Binding at 10 μM” value in experiment [2] amounted to 77%. Besides, the “BTX Binding at 10 μM” value in experiment [3] is 99%.
Regarding `COc1cccc(C(C2CCCCC2(O)c2ccc3c(c2)OCO3)N(C)C)c1.Cl` (centres unmarked) [Example 31, 1-benzo[1,3]dioxol-5-yl-2-[dimethylamino-(3-methoxyphenyl)methyl]cyclohexanol, hydrochloride], the inhibition in vivo at 10 mg/kg in experiment [1] is 76%. In addition, the inhibition at 1 µM at NA transporter stood at 43%. The “Diltiazem Binding at 10 μM” value in experiment [2] turned out to be 90%. Also, in experiment [3], the “BTX Binding at 10 μM” value was found to be 85%.
With `CN(C)C(c1ccccc1)(c1cccc(Oc2ccccc2)c1)C1CCCCC1(O)Cc1ccccc1.Cl` (centres unmarked) [Example 34, 1-benzyl-2-[dimethylaminophenyl-(3-phenoxyphenyl)methyl]cyclohexanol, hydrochloride], the inhibition in vivo at 10 mg/kg in experiment [1] worked out at 99%. The inhibition at 1 µM at NA transporter turned out to be 96%. The “Diltiazem Binding at 10 μM” value in experiment [2] is recorded as 100%. Besides, in experiment [3], the “BTX Binding at 10 μM” value is recorded as 100%.
Take `CN(C)C(c1ccc(Cl)c(Cl)c1)C1CCCCC1(O)Cc1ccccc1.Cl` (centres unmarked) [Example 39, 1-benzyl-2-[(3,4-dichlorophenyl)dimethylaminomethyl]cyclohexanol, hydrochloride]: at 10 mg/kg the inhibition in vivo in experiment [1] was 94%. The inhibition at 1 µM at NA transporter was 61%. For the same compound, the “Diltiazem Binding at 10 μM” value in experiment [2] was determined as 76%. In addition, the “BTX Binding at 10 μM” value in experiment [3] is reported as 97%.
The matching figures for `Cc1ccccc1C(C1CCCCC1(O)Cc1ccccc1)N(C)C.Cl` (centres unmarked) [Example 67, 1-benzyl-2-(dimethylamino-o-tolylmethyl)cyclohexanol, hydrochloride]: 84%, 83%, 98% and 97%.
For `COC(=O)c1ccc(C2(O)CCCCC2C(c2ccccc2)N(C)C)cc1.Cl` (centres unmarked) [Example 71, Methyl-4-[2-(dimethylaminophenylmethyl)-1-hydroxycyclohexyl]benzoate, hydrochloride], in that order: 55%, 88%, 74% and 81%.

(Values after US6410790B1, “3-amin3-arylpropan-1-ol compounds, their preparation and use” (priority 1999, dated 2002).)
